Reference: ChEMBL document CHEMBL4813954, “Dibenzodiazepinone-type muscarinic receptor antagonists conjugated to basic peptides: Impact of the linker moiety and unnatural amino acids on M2R selectivity” (Eur J Med Chem, 2021)

Assays:
[1] = molecular target: T1, Muscarinic acetylcholine receptor M1 (Homo sapiens, UniProt P11229); assay: Displacement of [3H]-NMS from human muscarinic M1 receptor expressed in CHO cell membranes assessed as inhibition constant by radioligand competition analysis; set-up: species or system Cell membrane
T1 sequence (P11229 whole entry): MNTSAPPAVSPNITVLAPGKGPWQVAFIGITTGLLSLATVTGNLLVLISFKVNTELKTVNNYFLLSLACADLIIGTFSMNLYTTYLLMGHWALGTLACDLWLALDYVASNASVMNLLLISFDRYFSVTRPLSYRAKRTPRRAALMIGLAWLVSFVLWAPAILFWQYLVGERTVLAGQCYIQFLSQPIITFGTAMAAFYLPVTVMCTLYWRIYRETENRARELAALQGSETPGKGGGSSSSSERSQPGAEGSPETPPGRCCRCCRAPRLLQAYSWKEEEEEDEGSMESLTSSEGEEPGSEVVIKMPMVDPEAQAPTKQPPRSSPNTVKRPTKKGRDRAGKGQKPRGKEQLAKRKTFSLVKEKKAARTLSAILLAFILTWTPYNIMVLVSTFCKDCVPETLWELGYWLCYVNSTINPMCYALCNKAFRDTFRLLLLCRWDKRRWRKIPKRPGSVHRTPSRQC

[2] = molecular target: T2, Muscarinic acetylcholine receptor M2 (Homo sapiens, UniProt P08172); assay: Displacement of [3H]-NMS from human muscarinic M2 receptor expressed in CHO cell membranes assessed as inhibition constant by radioligand competition analysis; set-up: species or system Cell membrane
T2 sequence (P08172 whole entry): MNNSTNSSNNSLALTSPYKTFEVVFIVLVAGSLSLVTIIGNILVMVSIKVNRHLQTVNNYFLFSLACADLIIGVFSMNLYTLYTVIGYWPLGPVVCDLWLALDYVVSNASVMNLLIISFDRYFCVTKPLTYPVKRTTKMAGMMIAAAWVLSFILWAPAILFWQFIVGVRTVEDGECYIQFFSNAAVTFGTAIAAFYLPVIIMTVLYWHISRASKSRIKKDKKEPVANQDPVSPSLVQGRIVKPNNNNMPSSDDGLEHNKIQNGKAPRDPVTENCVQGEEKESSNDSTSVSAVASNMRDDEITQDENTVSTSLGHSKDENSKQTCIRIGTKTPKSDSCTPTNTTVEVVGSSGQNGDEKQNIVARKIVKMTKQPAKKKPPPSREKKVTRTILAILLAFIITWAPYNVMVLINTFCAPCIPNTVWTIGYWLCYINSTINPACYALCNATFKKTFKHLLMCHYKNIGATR

[3] = molecular target: T3, Muscarinic acetylcholine receptor M4 (Homo sapiens, UniProt P08173); assay: Displacement of [3H]-NMS from human muscarinic M4 receptor expressed in CHO cell membranes assessed as inhibition constant by radioligand competition analysis; set-up: species or system Cell membrane
T3 sequence (P08173 whole entry): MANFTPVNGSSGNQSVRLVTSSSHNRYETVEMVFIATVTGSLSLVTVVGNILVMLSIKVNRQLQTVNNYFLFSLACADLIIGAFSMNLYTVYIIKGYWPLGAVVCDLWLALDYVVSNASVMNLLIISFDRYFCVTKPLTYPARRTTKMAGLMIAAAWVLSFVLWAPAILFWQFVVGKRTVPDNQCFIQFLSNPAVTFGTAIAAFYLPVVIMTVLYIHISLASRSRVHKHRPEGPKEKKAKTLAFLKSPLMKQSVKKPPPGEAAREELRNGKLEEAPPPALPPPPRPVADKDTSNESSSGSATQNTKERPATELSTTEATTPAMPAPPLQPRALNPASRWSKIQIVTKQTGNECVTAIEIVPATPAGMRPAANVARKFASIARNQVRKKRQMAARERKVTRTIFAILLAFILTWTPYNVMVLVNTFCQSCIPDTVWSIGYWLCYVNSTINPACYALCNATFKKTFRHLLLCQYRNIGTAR

[4] = molecular target: Muscarinic acetylcholine receptors; M2 & M3 (Homo sapiens) (UniProt P20309+P08172); assay: Selectivity index, […] for displacement of [3H]NMS from human recombinant muscarinic receptor M3 expressed in CHO cell membranes […] for displacement of [3H]NMS from human recombinant muscarinic receptor M2 expressed in CHO cell membranes
[5] = molecular target: Muscarinic acetylcholine receptor M3 (Homo sapiens, UniProt P20309); assay: Displacement of [3H]-NMS from human muscarinic M3 receptor expressed in CHO cell membranes assessed as inhibition constant by radioligand competition analysis; set-up: species or system Cell membrane
[6] = molecular target: T4, Muscarinic acetylcholine receptor M5 (Homo sapiens, UniProt P08912); assay: Displacement of [3H]-NMS from human muscarinic M5 receptor expressed in CHO cell membranes assessed as inhibition constant by radioligand competition analysis; set-up: species or system Cell membrane
T4 sequence (P08912 whole entry): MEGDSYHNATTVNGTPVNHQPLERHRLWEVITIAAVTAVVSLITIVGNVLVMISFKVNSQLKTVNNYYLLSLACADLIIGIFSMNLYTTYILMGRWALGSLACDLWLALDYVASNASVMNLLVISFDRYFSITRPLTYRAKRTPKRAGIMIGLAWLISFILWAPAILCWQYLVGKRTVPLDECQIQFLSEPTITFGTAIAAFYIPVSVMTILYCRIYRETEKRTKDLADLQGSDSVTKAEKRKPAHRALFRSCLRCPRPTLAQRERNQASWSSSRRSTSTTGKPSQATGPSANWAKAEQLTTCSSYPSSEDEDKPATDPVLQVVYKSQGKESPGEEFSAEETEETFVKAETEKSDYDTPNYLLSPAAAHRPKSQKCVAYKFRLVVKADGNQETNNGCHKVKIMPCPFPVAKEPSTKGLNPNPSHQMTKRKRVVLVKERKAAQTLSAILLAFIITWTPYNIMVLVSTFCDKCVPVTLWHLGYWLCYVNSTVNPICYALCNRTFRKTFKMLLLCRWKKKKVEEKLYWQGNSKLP

[7] = molecular target: Muscarinic acetylcholine receptor M2 and M5 (Homo sapiens) (UniProt P08172+P08912); assay: Selectivity index, […] for displacement of [3H]NMS from human recombinant muscarinic receptor M5 expressed in CHO cell membranes […] for displacement of [3H]NMS from human recombinant muscarinic receptor M2 expressed in CHO cell membranes

Sequence of Muscarinic acetylcholine receptor M3 (P20309 whole entry): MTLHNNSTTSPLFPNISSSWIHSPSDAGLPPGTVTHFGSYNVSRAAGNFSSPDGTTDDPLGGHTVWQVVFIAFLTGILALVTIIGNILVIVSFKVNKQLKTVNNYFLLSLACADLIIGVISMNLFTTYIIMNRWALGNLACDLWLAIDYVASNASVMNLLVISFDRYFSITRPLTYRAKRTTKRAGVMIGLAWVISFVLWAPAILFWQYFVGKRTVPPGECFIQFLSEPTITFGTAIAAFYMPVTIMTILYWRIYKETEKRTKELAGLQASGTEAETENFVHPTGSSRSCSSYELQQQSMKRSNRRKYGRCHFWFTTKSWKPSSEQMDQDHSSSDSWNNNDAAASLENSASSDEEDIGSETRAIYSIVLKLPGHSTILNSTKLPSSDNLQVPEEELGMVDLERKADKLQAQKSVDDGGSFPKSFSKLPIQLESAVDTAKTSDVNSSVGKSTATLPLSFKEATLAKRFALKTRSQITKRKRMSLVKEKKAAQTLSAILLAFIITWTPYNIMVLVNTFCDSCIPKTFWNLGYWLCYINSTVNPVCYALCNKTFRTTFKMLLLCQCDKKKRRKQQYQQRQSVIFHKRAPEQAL

| Compound | Ki [1] | Ki [2] | Ki [3] | Selectivity Index [4] | Ki [5] | Ki [6] | Selectivity Index [7] |
| --- | --- | --- | --- | --- | --- | --- | --- |
| NC1CCN(CCCCC2CCN(CC(=O)N3c4ccccc4NC(=O)c4ccccc43)CC2)CC1 | 2.57 nM | 0.186 nM | 2.51 nM |  |  |  |  |
| Nc1ccccc1C(=O)N1CCC(N2CCC(Cc3ccc(S(=O)(=O)c4cccc(Cl)c4)cc3)CC2)CC1 | 324 nM |  | 91.2 nM |  |  |  |  |
| NCCN1CCN(C(=O)CCCC2CCN(CC(=O)N3c4ccccc4NC(=O)c4ccccc43)CC2)CC1 | 724 nM | 155 nM | 1510 nM |  |  |  |  |
| CC(=O)N[C@@H](CCCCN)C(=O)N[C@@H](CCCNC(=N)N)C(=O)NCCCCC1CCN(CC(=O)N2c3ccccc3NC(=O)c3ccccc32)CC1 | 39.8 nM | 1 nM | 63.1 nM | 6500 | 6310 nM | 316 nM | 400 |
| NCCN1CCN(CCCC2CCN(CC(=O)N3c4ccccc4NC(=O)c4ccccc43)CC2)CC1 | 44.7 nM | 3.55 nM | 18.6 nM |  |  |  |  |
| NCCN1CCN(CCC(=O)NC2CCN(CC(=O)N3c4ccccc4NC(=O)c4ccccc43)CC2)CC1 | 363 nM | 23.4 nM | 363 nM |  |  |  |  |
| NCCN1CCN(CC(=O)NC2CCN(CC(=O)N3c4ccccc4NC(=O)c4ccccc43)CC2)CC1 | 47900 nM | 2450 nM | 25700 nM |  |  |  |  |
| N=C(N)NCCC[C@H](N)C(=O)NCCN1CCN(CCCCC2CCN(CC(=O)N3c4ccccc4NC(=O)c4ccccc43)CC2)CC1 | 1.35 nM | 0.102 nM | 0.794 nM |  |  |  |  |
| CCCN[C@@H](CCCNC(=N)N)C(=O)N[C@@H](C)C(=O)N[C@@H](CCCCN)C(=O)NC(C)=O |  | 6170 nM |  |  |  |  |  |
| N=C(N)NCCC[C@@H](N)C(=O)NCCN1CCN(CCCCC2CCN(CC(=O)N3c4ccccc4NC(=O)c4ccccc43)CC2)CC1 | 0.692 nM | 0.229 nM | 1.82 nM |  |  |  |  |
| NCC(=O)NC1CCN(CC(=O)N2c3ccccc3NC(=O)c3ccccc32)CC1 | 2950 nM | 1150 nM | 1100 nM |  |  |  |  |
| CCCN[C@@H](CCCNC(=N)N)C(=O)N[C@@H](CCCCN)C(=O)NC(C)=O |  | 6460 nM |  |  |  |  |  |
| N=C(N)NCCC[C@@H](N)C(=O)NCCN1CCN(CCCC2CCN(CC(=O)N3c4ccccc4NC(=O)c4ccccc43)CC2)CC1 | 11.7 nM | 0.589 nM | 3.98 nM | > 160 | 251 nM | 676 nM | 1300 |
| CCN(CC)CCCCC1CCN(CC(=O)N2c3ccccc3NC(=O)c3ccccc32)CC1 |  |  |  | 37 |  |  |  |
| CCC(=O)NCCNC(=O)CCc1cn(CCCCC2CCN(CC(=O)N3c4ccccc4NC(=O)c4ccccc43)CC2)cn1 | 7.94 nM | 0.794 nM | 2.51 nM | 79 | 63.1 nM | 158 nM | 230 |
| CC(=O)N[C@@H](Cc1c[nH]c2ccccc12)C(=O)N[C@@H](C)C(=O)N[C@@H](Cc1ccc(O)cc1)C(=O)NCCCCC1CCN(CC(=O)N2c3ccccc3NC(=O)c3ccccc32)CC1 | 100 nM |  | 39.8 nM | 56 | 1260 nM | 126 nM | 6.2 |
| CCCN[C@@H](CCNC(=N)N)C(=O)N[C@@H](CCCCN)C(=O)NC(C)=O |  | 4470 nM |  |  |  |  |  |
| CC(=O)N[C@@H](CCCCN)C(=O)N[C@@H](C)C(=O)N[C@@H](CCCNC(=N)N)C(=O)NCCN1CCN(CCCCC2CCN(CC(=O)N3c4ccccc4NC(=O)c4ccccc43)CC2)CC1 | 2.51 nM | 0.1 nM | 2 nM | 1800 | 100 nM | 398 nM | 4900 |
